According to paper PMC7867085, “In Vitro and In Vivo Antitumor Activity of Indolo[2,3-b] Quinolines, Natural Product Analogs from Neocryptolepine Alkaloid” (Molecules, 2021):
“Also recorded” adds a separate entry of the source.

Legend:
EAC solid tumor = experiment: Histopathological examination of tumor sections (H and E); type: in vivo, mice; settings: for tumor section histopathology (necrosis): EAC bearing mouse, H and E × 200, Figure 3; for tumor cell death (histopathology): EAC solid tumor, compared with other molecules
Description: Results of the treated group and that of the positive control group are illustrated in (Figure 3 and Figure 4). […] At the same time, the count of mitotic cells was less in the studied analogs 6a, 6b, 6c and 6d as measured up to that of the positive control group.
Each tumor or liver sample for each mouse was separated and kept in 10% formalin solution and dehydrated in a graded alcohol series. Each specimen was treated with xylene and then inserted in paraffin blocks. The specimen was cut into sections, the thickness of each section is five-micron, hematoxylin, and eosin (H and E) were added for staining. The stained liver specimen was used to assess the degree of degradation and necrosis using a reported scaling system; the scaling system use numbers from 0 to 3 to reflect necrosis severity. Starting from 0, which indicates no necrosis and moves to mild, moderate, and severe necrosis indicated by 1, 2, and 3, respectively. Mild and moderate stages are defined as focal and multifocal necrosis or degradation of hepatocytes, respectively, while severe is characterized by local immense, spread out necrosis or damaged liver cells. Tumor specimen stained with H and E were used to evaluate the severity and percentage of necrosis by the same previously mentioned scaling system.
H and E-stained slides of tumor specimens were used also used to calculate the H score as well as the mitosis counting and apoptotic tumor cell counting, ten arbitrarily chosen microscopic fields were used for each mitosis and apoptotic tumor cell counting, this was considered as examining at least 1000 tumor cells. High magnification (400×) was used for microscopic examination.

Swiss albino mice = experiment: Acute / short-term toxicity study, single subcutaneous dose; type: in vivo; settings: for No. of Death: 7 mice; for No. of Death / % Mortality: observed 24 h
Description: To confirm the safety of indoloquinoline compounds, acute and short-term toxicity studies were done. Forty-two Swiss albino mice were divided into six groups of seven mice each. The first five groups were subcutaneously injected in single graded doses. The first five groups were given a single dose of graded doses (400, 800, 1200, 1600, and 2000 mg/kg body weight) of indoloquinoline analog containing 11-substituted N-methyl piperazinyl side-chain 6d by the subcutaneous route, while the last group received 0.2 mL of (water: DMSO, 7:3) by the same route. The animals were then observed for 24 h for toxicity signs and death. The LD50 of 6d was calculated using the arithmetic methods of Karber as modified by Aliu and Nwude. The mortality rates and calculated LD50 are presented in (Table 3).

Molecule: Cn1c2nc3ccccc3c-2c(NCCc2c[nH]c3ccccc23)c2ccccc21 [Compound 6b, N-(2-(1H-Indol-3-yl)ethyl)-5-methyl-5H-indolo[2,3-b] Quinolin-11-amine]
- tumor section histopathology (necrosis) (EAC solid tumor): extensive necrosis (Ne) with minimal viable malignant cells
- tumor cell death (histopathology) (EAC solid tumor): supremely cell death percentage and apoptosis; also recorded: highest effect in tumor cell death without harming liver cells

Molecule: 5(5-Methyl-5H-indolo[2,3-b] quinolin-11-ylamino) Pyrimidine-2,4(1H,3H)-dione [Compound 6c]
- tumor section histopathology (necrosis) (EAC solid tumor): massive area of coagulative necrosis (Ne) with viable tumor cells

Molecule: Cn1c2nc3ccccc3c-2c(Nc2ccc(Br)cc2F)c2ccccc21 [Compound 6a, N-(4-Bromo-2-fluorophenyl)-5-methyl-5H-indolo[2,3-b] Quinolin-11-amine]
- antimitotic effect (count of mitotic cells) (EAC solid tumor; EAC bearing mice, H and E): greatest antimitotic effect
- tumor section histopathology (necrosis) (EAC solid tumor): massive, coagulated necrosis (Ne) with minimal residual malignant cells
- tumor cell death (histopathology) (EAC solid tumor): supremely cell death percentage and apoptosis

Molecule: 5-Methyl-N-(4-methylpiperazin-1-yl)-5H-indolo[2,3-b] Quinolin-11-amine [Compound 6d]
- No. of Death (Swiss albino mice; 400 mg/kg SC single dose): 0
- % Mortality (Swiss albino mice; 400 mg/kg SC single dose): 0%
- No. of Death (Swiss albino mice; 800 mg/kg SC single dose): 2
- % Mortality (Swiss albino mice; 800 mg/kg SC single dose): 28.5%
- No. of Death (Swiss albino mice; 1200 mg/kg SC single dose): 4
- % Mortality (Swiss albino mice; 1200 mg/kg SC single dose): 57.1%
- No. of Death (Swiss albino mice; 1600 mg/kg SC single dose): 6
- % Mortality (Swiss albino mice; 1600 mg/kg SC single dose): 85.7%
- No. of Death (Swiss albino mice; 2000 mg/kg SC single dose): 7
- % Mortality (Swiss albino mice; 2000 mg/kg SC single dose): 100%
- LD50 (Swiss albino mice; subcutaneous, mice, arithmetic method of Karber): 1000 mg/kg
- tumor section histopathology (necrosis) (EAC solid tumor): massive geographic coagulative necrosis (Ne) surrounded by viable tumor cells
